Calls of active or inactive are those of the source. No cut-off for these calls is given here.
How the values were obtained:
[1] = test system: Peritoneal macrophage cell; experiment: Induction of intracellular […] production in Swiss mouse peritoneal macrophages up to 12 uM after 72 hrs by spectrofluorometric analysis; format: functional, cell-based
[2] = test system: Peritoneal macrophage cell; experiment: Induction of intracellular […] production in promastigotes of Leishmania amazonensis MHOM/BR/75/LTB0016 infected Swiss mouse peritoneal macrophages at 12 uM after 72 hrs by spectrofluorometric analysis relative to control; format: functional
[3] = test system: Peritoneal macrophage cell; experiment: Induction of intracellular […] production in promastigotes of Leishmania amazonensis MHOM/BR/75/LTB0016 infected Swiss mouse peritoneal macrophages after 72 hrs by spectrofluorometric analysis; format: functional, cell-based
[4] = Cytotoxicity against Swiss mouse peritoneal macrophages after 72 hrs by AlamarBlue assay; format: cell-based; settings: Peritoneal macrophage cell
[5] = Selectivity index, ratio of IC50 for Swiss mouse peritoneal macrophages to IC50 for promastigotes of Leishmania amazonensis MHOM/BR/75/LTB0016
Leishmania amazonensis [6] = experiment: Antileishmanial activity against promastigotes of Leishmania amazonensis MHOM/BR/75/LTB0016 infected in Swiss mouse peritoneal macrophages assessed as parasite growth inhibition at 12 uM after 72 hrs; format: functional; settings: MHOM/BR/75/LTB0016, 72 h, read-out: GI
Leishmania amazonensis [7] = experiment: Antileishmanial activity against promastigotes of Leishmania amazonensis MHOM/BR/75/LTB0016 infected in Swiss mouse peritoneal macrophages assessed as reduction of infection index after 72 hrs; format: functional, organism-based
Leishmania amazonensis [8] = experiment: Antileishmanial activity against Leishmania amazonensis after 72 hrs; format: functional, organism-based

Row | Compound | Activity [1] | fold change (FC) [2] | Activity [3] | IC50 [4] [µM] | Ratio IC50 [5] | inhibition of growth at 12 µM (Leishmania amazonensis [6]) [%] | inhibition (Leishmania amazonensis [7]) | IC50 (Leishmania amazonensis [7]; MHOM/BR/75/LTB0016, 72 h) [µM] | IC50 (Leishmania amazonensis [8]) [µM]
1 | O=c1c(O)c(-c2ccc(O)c(O)c2)oc2cc(O)cc(O)c12 [QUERCETIN] | inactive | 1.5 | Dose-dependent effect | 80.2 | 16.8 | 74.8 | Dose-dependent effect | 3.4 | 
2 | CCCCCCCCCCCCCCCCOP(=O)([O-])OCC[N+](C)(C)C [MILTEFOSINE] |  |  |  |  |  |  |  |  | 3.2

Source: ChEMBL document CHEMBL2406940, “Reactive oxygen species production by quercetin causes the death of Leishmania amazonensis intracellular amastigotes” (J Nat Prod, 2013)
